Measurements reported in patent US20240041042A1, “1-(PYRIDYL)-5-AZINYLPYRAZOLE DERIVATIVES, AND THEIR USE FOR CONTROL OF UNDESIRED PLANT GROWTH” (Bayer Aktiengesellschaft, priority 2020, published 2024).
Like-named read-outs stand apart in the source and are kept apart here.

How the values were obtained:
Assay type in all cases: in vivo
[1] = system: Verconica persica (VERPE); test: Post-emergence herbicidal action against VERPE
Method in brief: (§1)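 Values are percent visual activity (0% like control, 100% plants dead) after about 3 weeks in the greenhouse. Treatment: post-emergence spray at one-leaf stage, 600 l/ha spray volume, 0.5% additive, doses 320 g/ha or lower.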

[2] = system: Digitaria sanguinalis (DIGSA); test: Post-emergence herbicidal action against DIGSA; settings: visual rating about 3 weeks after treatment
Method in brief: as §1

[3] = system: Alopecurus myosuroides (ALOMY); test: Post-emergence herbicidal action against ALOMY; settings: visual rating about 3 weeks after treatment vs untreated controls (100% = plants have died, 0% = like control plants)
Method in brief: as §1

[4] = system: Echinochloa crus-galli (ECHCG); test: Post-emergence herbicidal action against ECHCG
Method in brief: as §1

Setaria viridis (SETVI) = test: Post-emergence herbicidal action against SETVI
Method in brief: as §1

[5] = system: Abutilon theophrasti (ABUTH); test: Post-emergence herbicidal action against ABUTH; settings: visual rating about 3 weeks after treatment vs untreated controls (100% = plants have died, 0% = like control plants)
Method in brief: as §1

[6] = system: Amaranthus retroflexus (AMARE); test: Post-emergence herbicidal action against AMARE
Method in brief: as §1

[7] = system: Triticum aestivum (TRZAS); settings: crop plant compatibility, effect vs untreated controls
Method in brief: (§2)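 Test crops were treated 2 to 3 weeks after sowing, once they reached one leaf, by spraying compound in water with 0.5% additive at 600 l/ha. Visual scoring compared them with untreated controls roughly 3 weeks on, and appendices a, b and c denote different doses.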

Oryza sativa (ORYSA) = settings: crop plant compatibility
Method in brief: as §2

Zea mays (ZEAMX) = settings: for Post-emergence action against ZEAMX in % (crop plant compatibility): 20 g/ha, effect in comparison to untreated controls; for Post-emergence action against ZEAMX in %: crop plant compatibility, effect vs untreated controls
Method in brief: as §2

Viola tricolor (VIOTR) = test: Post-emergence herbicidal action against VIOTR
Method in brief: as §1

[8] = system: Polygonum convolvulus (POLCO); test: Post-emergence herbicidal action against POLCO
Method in brief: as §1

Lolium rigidum (LOLRI) = test: Post-emergence herbicidal action against LOLRI
Method in brief: as §1

[9] = system: Matricaria inodora (MATIN); test: Post-emergence herbicidal action against MATIN
Method in brief: as §1

Avena fatua (AVEFA) = test: Post-emergence herbicidal action against AVEFA; settings: visual rating about 3 weeks after treatment
Method in brief: as §1

[10] = system: Pharbitis purpurea (PHBPU); test: Post-emergence herbicidal action against PHBPU
Method in brief: as §1

[11] = 320 g/ha, visual rating about 3 weeks after treatment
[12] = 20 g/ha, effect vs untreated controls
[13] = 80 g/ha, effect in comparison to untreated controls
[14] = 320 g/ha, effect in comparison to untreated controls

| Structure (SMILES) | Post-emergence action against TRZAS in % ([7]; 20 g/ha) | Post-emergence action against ORYSA in % (Oryza sativa (ORYSA); [12]) | Post-emergence action against ORYSA in % (Oryza sativa (ORYSA); [13]) | Post-emergence action against ZEAMX in % (crop plant compatibility) (Zea mays (ZEAMX)) | Post-emergence action against ZEAMX in % (Zea mays (ZEAMX); 80 g/ha) | Post-emergence action against VERPE in % ([1]; 320 g/ha, VERPE) | Post-emergence action against VERPE in % ([1]; dosage 80 g/ha) | Post-emergence action against DIGSA in % ([2]; 320 g/ha) | Post-emergence action against ALOMY in % ([3]; 320 g/ha) | Post-emergence action against ECHCG in % ([4]; dosage 320 g/ha) | Post-emergence action against SETVI in % (Setaria viridis (SETVI); dosage 320 g/ha) | Post-emergence action against AMARE in % [6, 11] | Post-emergence action against VIOTR in % (Viola tricolor (VIOTR); 80 g/ha) | Post-emergence action against VIOTR in % (Viola tricolor (VIOTR); 320 g/ha) | Post-emergence action against POLCO in % ([8]; dosage 320 g/ha) | Post-emergence action against ECHCG in % ([4]; dosage 80 g/ha) | Post-emergence action against LOLRI in % (Lolium rigidum (LOLRI); dosage 320 g/ha) | Post-emergence action against MATIN in % ([9]; dosage 320 g/ha) | Post-emergence action against AVEFA in % (Avena fatua (AVEFA); 320 g/ha) | Post-emergence action against PHBPU in % ([10]; dosage 320 g/ha) | also measured |
| --- | --- | --- | --- | --- | --- | --- | --- | --- | --- | --- | --- | --- | --- | --- | --- | --- | --- | --- | --- | --- | --- |
| COC(=O)COc1nn(-c2cccnc2C)c(-c2cncc(F)c2)c1Cl [II-44] | 20% | 0% | 0% | 0% | 0% | 90% | 80% | 80% | 100% | 90% | 90% | 90% | 80% | 90% | 90% | – | – | – | – | – | Post-emergence action against ABUTH in % ([5]; 320 g/ha): 80%; Post-emergence action against TRZAS in % ([7]; 80 g/ha): 20% |
| O=C(O)COc1nn(-c2ccccn2)c(-c2ccc(F)nc2)c1Cl [Example I-266] | 20% | 20% | – | – | – | 90% | 80% | 90% | 90% | 90% | 80% | 90% | 80% | 90% | 90% | 80% | 90% | 90% | – | 90% | Post-emergence action against PHBPU in % ([10]; dosage 80 g/ha): 80%; Post-emergence action against POLCO in % ([8]; dosage 80 g/ha): 80%; Post-emergence action against MATIN in % ([9]; dosage 80 g/ha): 80% |
| COC(=O)[C@@H](C)Oc1nn(-c2ncccc2F)c(-c2ccnc(F)c2)c1Br [Example I-134] | 20% | 0% | 10% | 10% | – | 80% | 80% | 80% | 90% | 80% | 80% | – | – | – | – | – | 90% | – | – | – | Post-emergence action against LOLRI in % (Lolium rigidum (LOLRI); dosage 80 g/ha): 80% |
| O=C(O)COc1nn(-c2ncccc2F)c(-c2ccnc(F)c2)c1Br [Example I-139] | 0% | 0% | 0% | 0% | 0% | 90% | 80% | 90% | 90% | 80% | – | 90% | 80% | 90% | 90% | – | – | – | – | 80% | Post-emergence action against ALOMY in % ([3]; 80 g/ha): 90%; Post-emergence action against ABUTH in % ([5]; 320 g/ha): 80%; Post-emergence action against AMARE in % ([6]; 80 g/ha, visual rating about 3 weeks after treatment vs untreated controls (100% = plants have died, 0% = like control plants)): 80%; Post-emergence action against ORYSA in % (Oryza sativa (ORYSA); [14]): 10%; Post-emergence action against ZEAMX in % (Zea mays (ZEAMX); 320 g/ha): 10% |
| C[C@@H](Oc1nn(-c2ncccc2F)c(-c2ccnc(F)c2)c1Br)C(=O)O [Example I-140] | 10% | 0% | 0% | – | – | 90% | – | 80% | 100% | 80% | – | 90% | 90% | 90% | 90% | – | 90% | – | 90% | – | Post-emergence action against ABUTH in % ([5]; 320 g/ha): 80%; Post-emergence action against ORYSA in % (Oryza sativa (ORYSA); [14]): 10% |
| Cc1ncccc1-n1nc(OCC(=O)O)c(Cl)c1-c1cncc(F)c1 [II-42] | 0% | 0% | 0% | 20% | – | 90% | 80% | 80% | 90% | 90% | 90% | 90% | 80% | 90% | 80% | – | – | 80% | 90% | 90% | Post-emergence action against ALOMY in % ([3]; 80 g/ha): 80%; Post-emergence action against TRZAS in % ([7]; 80 g/ha): 20%; Post-emergence action against ORYSA in % (Oryza sativa (ORYSA); [14]): 0% |
| O=C(O)COc1nn(-c2ncccc2F)c(-c2cncc(F)c2)c1Cl [Example I-169] | 0% | 0% | 10% | 10% | 10% | 90% | 80% | 90% | – | 90% | 80% | – | – | 80% | 80% | 80% | 80% | 90% | 80% | 90% | Post-emergence action against PHBPU in % ([10]; dosage 80 g/ha): 80%; Post-emergence action against POLCO in % ([8]; dosage 80 g/ha): 80%; Post-emergence action against MATIN in % ([9]; dosage 80 g/ha): 80% |

Now from value to compound, other results behind:

| Post-emergence action against TRZAS in % ([7]; 20 g/ha) | Post-emergence action against ORYSA in % (Oryza sativa (ORYSA); [12]) | Post-emergence action against ORYSA in % (Oryza sativa (ORYSA); [13]) | Post-emergence action against ZEAMX in % (crop plant compatibility) (Zea mays (ZEAMX)) | Post-emergence action against ZEAMX in % (Zea mays (ZEAMX); 80 g/ha) | Structure (SMILES) | Post-emergence action against VERPE in % ([1]; 320 g/ha, VERPE) | Post-emergence action against VERPE in % ([1]; dosage 80 g/ha) | Post-emergence action against DIGSA in % ([2]; 320 g/ha) | Post-emergence action against ALOMY in % ([3]; 320 g/ha) | Post-emergence action against ECHCG in % ([4]; dosage 320 g/ha) | Post-emergence action against SETVI in % (Setaria viridis (SETVI); dosage 320 g/ha) | Post-emergence action against AMARE in % [6, 11] | Post-emergence action against VIOTR in % (Viola tricolor (VIOTR); 80 g/ha) | Post-emergence action against VIOTR in % (Viola tricolor (VIOTR); 320 g/ha) | Post-emergence action against POLCO in % ([8]; dosage 320 g/ha) | Post-emergence action against ECHCG in % ([4]; dosage 80 g/ha) | Post-emergence action against LOLRI in % (Lolium rigidum (LOLRI); dosage 320 g/ha) | Post-emergence action against MATIN in % ([9]; dosage 320 g/ha) | Post-emergence action against AVEFA in % (Avena fatua (AVEFA); 320 g/ha) | Post-emergence action against PHBPU in % ([10]; dosage 320 g/ha) | also measured |
| --- | --- | --- | --- | --- | --- | --- | --- | --- | --- | --- | --- | --- | --- | --- | --- | --- | --- | --- | --- | --- | --- |
| 20% | – | – | 10% | 20% | COC(=O)CCOC(=O)COc1nn(-c2ncccc2F)c(-c2ccc(F)nc2)c1C1CC1 [Example I-383] | 90% | 80% | 90% | 90% | 90% | 80% | 80% | 80% | 90% | – | 80% | 90% | 80% | 80% | – | Post-emergence action against DIGSA in % ([2]; 80 g/ha): 80%; Post-emergence action against SETVI in % (Setaria viridis (SETVI); dosage 80 g/ha): 80%; Post-emergence action against LOLRI in % (Lolium rigidum (LOLRI); dosage 80 g/ha): 80%; Post-emergence action against AVEFA in % (Avena fatua (AVEFA); 80 g/ha): 80% |
| 10% | 10% | 20% | 10% | 10% | CCOC(=O)COc1nn(-c2ncccc2F)c(-c2ccnc(F)c2)c1Br [Example I-136] | – | – | 80% | 90% | 80% | 90% | – | 80% | 80% | – | – | 80% | 80% | – | 90% | Post-emergence action against ZEAMX in % (Zea mays (ZEAMX); 320 g/ha): 20% |
| 20% | 0% | 10% | 0% | 20% | O=C(COc1nn(-c2ncccc2F)c(-c2ccc(F)nc2)c1C1CC1)ON=C1CCCC1 [Example I-380] | 90% | 80% | 90% | 90% | 90% | 90% | – | 90% | 90% | 80% | 80% | 90% | – | 90% | – | Post-emergence action against DIGSA in % ([2]; 80 g/ha): 80%; Post-emergence action against SETVI in % (Setaria viridis (SETVI); dosage 80 g/ha): 80%; Post-emergence action against ABUTH in % ([5]; 80 g/ha): 80%; Post-emergence action against ABUTH in % ([5]; 320 g/ha): 90%; Post-emergence action against LOLRI in % (Lolium rigidum (LOLRI); dosage 80 g/ha): 90%; Post-emergence action against AVEFA in % (Avena fatua (AVEFA); 80 g/ha): 90% |
| 10% | 10% | – | 20% | 20% | O=C(COc1nn(-c2ncccc2F)c(-c2ccc(F)nc2)c1C1CC1)OCC1CCCC1 [Example I-251] | 90% | 80% | 90% | 80% | 90% | 90% | 90% | – | 90% | – | 80% | 90% | 90% | 90% | – | Post-emergence action against DIGSA in % ([2]; 80 g/ha): 80%; Post-emergence action against LOLRI in % (Lolium rigidum (LOLRI); dosage 80 g/ha): 90% |
